The numbers were not newly measured in PubChem BioAssay AID1259409 (Chemical Carcinogenesis Research Information System (CCRIS), 2018), which cites them from elsewhere.

This series relates to rodent chemically induced tumor inhibition, incidence and multiplicity. In words: CCRIS tumor inhibitor studies.

Regarding `CC1=CCCC(C)(C)[C@H]1/C=C/C(C)=C/C=C/C(C)=C/C=C/C=C(C)/C=C/C=C(C)/C=C/C1=C(C)CCCC1(C)C`, the “tumour outcome (control, treated, inhibition, significance)” value runs as follows: (Carcinogen: 4-NITROQUINOLINE-1-OXIDE, 56-57-5, Dose [Inhibitor]: 0, 0.05% IN DRINKING WATER AD LIBITUM (STUDY DURATION: 30 WK), Route [Inhibitor]: ORAL, Species: MOUSE, Strain/Sex: DDY/MALE, Target Tissue: Type of Lesion: LUNG: TUMOR, Dose [Carcinogen]: 10 MG/KG BW IN OLIVE OIL/CHOLESTEROL (20:1) ONCE, Promoter: GLYCEROL, 56-81-5) 94%, 73%, 22%, not significant; (Carcinogen: 4-NITROQUINOLINE-1-OXIDE, 56-57-5, Dose [Inhibitor]: 0, 0.05% IN DRINKING WATER BEGINNING 5 WK POST CARCINOGEN TREATMENT AND CONTINUING FOR 25 WK (STUDY DURATION: 30 WK), Route [Inhibitor]: ORAL, Species: MOUSE, Strain/Sex: DDY/MALE, Target Tissue: Type of Lesion: LUNG: TUMORS, Dose [Carcinogen]: 10 MG/KG BW IN OLIVE OIL AND CHOLESTEROL (20:1) ONCE, Promoter: NONE USED) 94%, 73%, 22%, not calculated; (Carcinogen: 7,12-DIMETHYLBENZ[A]ANTHRACENE, 57-97-6, Dose [Inhibitor]: 0, 0.05% IN DRINKING WATER AD LIBITUM FOR 30 WK BEGINNING 1 WK POST CARCINOGEN DOSE (STUDY DURATION: 31 WK), Route [Inhibitor]: ORAL, Species: MOUSE, Strain/Sex: ICR/FEMALE, Target Tissue: Type of Lesion: SKIN: TUMOR, Dose [Carcinogen]: 100 UG ONCE, Promoter: 12-O-TETRADECANOYLPHORBOL-13-ACETATE, 16561-29-8) 13/16 (81%), 7/16 (44%), 46%, not significant; (Carcinogen: 7,12-DIMETHYLBENZ[A]ANTHRACENE, 57-97-6, Dose [Inhibitor]: 0, 200 NMOL IN 200 µL ACETONE 2/WK BEGINNING 1 WK POST CARCINOGEN DOSE APPLIED SIMULTANEOUSLY WITH PROMOTER FOR 20 WK (S, Route [Inhibitor]: DERMAL, Species: MOUSE, Strain/Sex: ICR/?, Target Tissue: Type of Lesion: SKIN: PAPILLOMA, Dose [Carcinogen]: 100 UG ONCE, Promoter: 12-O-TETRADECANOYLPHORBOL-13-ACETATE, 16561-29-8) 69%, 25%, 64%, not calculated; (Carcinogen: 7,12-DIMETHYLBENZ[A]ANTHRACENE, 57-97-6, Dose [Inhibitor]: 0, 200 NMOL IN 200 µL ACETONE 2/WK FOR 40 WK APPLIED SIMULTANEOUSLY WITH PROMOTER BEGINNING 1 WK POST CARCINOGEN DOSE (S, Route [Inhibitor]: DERMAL, Species: MOUSE, Strain/Sex: ICR/FEMALE, Target Tissue: Type of Lesion: SKIN: TUMOR, Dose [Carcinogen]: 100 UG ONCE, Promoter: 12-O-TETRADECANOYLPHORBOL-13-ACETATE, 16561-29-8) 10/15 (67%), 5/15 (33%), 51%, p<0.01; (Carcinogen: 7,12-DIMETHYLBENZ[A]ANTHRACENE, 57-97-6, Dose [Inhibitor]: 0, 400 NMOL IN 200 µL ACETONE 2/WK BEGINNING 1 WK POST CARCINOGEN DOSE APPLIED SIMULTANEOUSLY WITH PROMOTER FOR 20 WK (S, Route [Inhibitor]: DERMAL, Species: MOUSE, Strain/Sex: ICR/?, Target Tissue: Type of Lesion: SKIN: PAPILLOMA, Dose [Carcinogen]: 100 UG ONCE, Promoter: 12-O-TETRADECANOYLPHORBOL-13-ACETATE, 16561-29-8) 69%, 13%, 81%, not calculated. The “tumour outcome (control, treated, inhibition, significance)” value is, setting by setting: (Carcinogen: NONE USED, Dose [Inhibitor]: 0, 0.005% IN DRINKING WATER AD LIBITUM FOR 40 WK (STUDY DURATION: 40 WK), Route [Inhibitor]: ORAL, Species: MOUSE, Strain/Sex: C3H/HE/MALE, Target Tissue: Type of Lesion: LIVER: TUMOR, Promoter: NONE USED) 100%, 100%, 0%, not significant; (Carcinogen: NONE USED, Dose [Inhibitor]: 0, 0.005% IN DRINKING WATER FOR 40 WK (STUDY DURATION: 40 WK), Route [Inhibitor]: ORAL, Species: MOUSE, Strain/Sex: C3H/HE/MALE, Target Tissue: Type of Lesion: LIVER: TUMORS, Promoter: NONE USED) 16/16 (100%), 15/15 (100%), 0%, not significant; (Carcinogen: NONE USED, Dose [Inhibitor]: 0, 0.05% IN DRINKING WATER AD LIBITUM FOR 40 WK (STUDY DURATION: 40 WK), Route [Inhibitor]: ORAL, Species: MOUSE, Strain/Sex: C3H/HE/MALE, Target Tissue: Type of Lesion: LIVER: TUMOR, Promoter: NONE USED) 100%, 94%, 6%, not significant; (Carcinogen: NONE USED, Dose [Inhibitor]: 0, 0.05% IN DRINKING WATER FOR 40 WK (STUDY DURATION: 40 WK), Route [Inhibitor]: ORAL, Species: MOUSE, Strain/Sex: C3H/HE/MALE, Target Tissue: Type of Lesion: LIVER: TUMORS, Promoter: NONE USED) 16/16 (100%), 16/17 (94%), 6%, not calculated.
`COc1c(O)cc(C2Oc3c(c(O)cc(O)c3[C@H]3c4c(O)cc(O)cc4O[C@H](c4ccc(O)cc4)[C@@H]3O)C[C@H]2O)cc1O` (some centres not stated): the “tumour outcome (control, treated, inhibition, significance)” value is, setting by setting: (Carcinogen: DIMETHYLNITROSAMINE [62-75-9], Dose [Inhibitor]: 100 MG/KG BW FOR 3 MO ADMINISTERED BEFORE CARCINOGEN (STUDY DURATION: 12 MO), Route [Inhibitor]: DIET, Species: MOUSE, Strain/Sex: B6C3F1/MALE, Target Tissue: Type of Lesion: LIVER: TUMOR, Dose [Carcinogen]: 5 MG/KG BW 3 X A WK FOR 2 MO, THEN 10 MG/KG 2 X WK FOR 4 WKS AFTER 3 MO OF GSPE) 85% (dmn); 60% gspe before dmn, 29%, not calculated; (Carcinogen: DIMETHYLNITROSAMINE [62-75-9], Dose [Inhibitor]: 100 MG/KG BW FOR 9 MO AFTER CARCINOGEN TREATMENT (STUDY DURATION: 12 MO), Route [Inhibitor]: DIET, Species: MOUSE, Strain/Sex: B6C3F1/MALE, Target Tissue: Type of Lesion: LIVER: TUMOR, Dose [Carcinogen]: 5 MG/KG BW 3 X A WK FOR 2 MO, THEN 10 MG/KG 2 X WK FOR 1 MO) 85% (dmn); 55% gspe, 35%, not calculated; (Carcinogen: DIMETHYLNITROSAMINE [62-75-9], Dose [Inhibitor]: 100 MG/KG BW FOR DURATION OF EXPERIMENT (STUDY DURATION: 12 MO), Route [Inhibitor]: DIET, Species: MOUSE, Strain/Sex: B6C3F1/MALE, Target Tissue: Type of Lesion: LIVER: TUMOR, Dose [Carcinogen]: 5 MG/KG BW 3 X A WK FOR 2 MO, THEN 10 MG/KG 2 X WK FOR 4 WKS) 85% (dmn); 45% gspe, 47%, not calculated.
As for `Nc1nc(N)c2nc(CNc3ccc(C(=O)N[C@@H](CCC(=O)O)C(=O)O)cc3)cnc2n1`, the “tumour outcome (control, treated, inhibition, significance)” value reads like this: (Carcinogen: URETHANE, 51-79-6, Dose [Inhibitor]: 0.25 UG/G BW IN DISTILLED WATER 1/D FOR 3 D FOLLOWED BY 0.5 UG/G BW ONCE ADMINISTERED AT SAME TIME AS CARCINOGEN TREATME, Route [Inhibitor]: INTRAPERITONEAL, Species: MOUSE, Strain/Sex: SWR/MALE, Target Tissue: Type of Lesion: LUNG: ADENOMA, Dose [Carcinogen]: 0.5 MG/G BW IN DISTILLED WATER ONCE AT 13 WK OF AGE, Promoter: NONE USED) 90%, 74%, 18%, not significant; (Carcinogen: URETHANE, 51-79-6, Dose [Inhibitor]: 0.25 UG/G BW IN DISTILLED WATER 1/D FOR 3 D FOLLOWED BY 0.5 UG/G BW ONCE ADMINISTERED AT SAME TIME AS CARCINOGEN TREATME, Route [Inhibitor]: INTRAPERITONEAL, Species: MOUSE, Strain/Sex: SWR/MALE, Target Tissue: Type of Lesion: LUNG: ADENOMA, Dose [Carcinogen]: 0.5 MG/G BW IN DISTILLED WATER ONCE AT 15 WK OF AGE, Promoter: NONE USED) 82%, 90%, -10%, not significant.
As to `C/C=C(/C)C(=O)OC1c2c(ccc3ccc(=O)oc23)OC(C)(C)C1OC(=O)/C(C)=C\C` (configuration not stated), the “tumour outcome (control, treated, inhibition, significance)” value (Carcinogen: 7,12-DIMETHYLBENZ[A]ANTHRACENE, 57-97-6, Dose [Inhibitor]: 10 UMOL APPLIED 40 MINUTES PRIOR TO PROMOTER DOSE (STUDY DURATION: 20 WK), Route [Inhibitor]: DERMAL, Species: MOUSE, Strain/Sex: ICR/FEMALE, Target Tissue: Type of Lesion: SKIN: PAPILLOMA, Dose [Carcinogen]: 100 UG ONCE) was 100%, 0%, 100%, not calculated.
`CCCCCCC(=O)O[C@H]1CC[C@H]2[C@@H]3CCC4=CC(=O)CC[C@]4(C)[C@H]3CC[C@]12C`: the “tumour outcome (control, treated, inhibition, significance)” value (Carcinogen: 7,12-DIMETHYLBENZ[A]ANTHRACENE, 57-97-6, Dose [Inhibitor]: 0, 6 MG/100 G BW 1/WK FOR 150 D BEGINNING POST CARCINOGEN TREATMENT (STUDY DURATION: 150 D), Route [Inhibitor]: SUBCUTANEOUS, Species: RAT, Strain/Sex: WISTAR/FEMALE, Target Tissue: Type of Lesion: MAMMARY GLAND: ADENOCARCINOMA, Dose [Carcinogen]: 4 MG IN 0.1 ML OF SESAME OIL INJECTED ONCE INTO THE EXPOSED MAMMARY TISSUE OF HYPERPROLACTINEMIC RATS ON DAY 73 OF AGE, Promoter: NONE USED) is on record as 8/11 (73%), 2/8 (25%), 66%, p<0.05.
